In patent publication US20190183114A1, “METHODS AND COMPOSITIONS FOR THE PRESERVATIONOF ORGANS” (INSERM (Institut National de la Sante et de la Recherche …, priority 2016, published 2019):
“Also recorded” adds a separate entry of the source.

How the values were obtained:
Format in all cases: cell-based, human
ATF6 [1] = assay: RT-qPCR of ATF6 downstream targets HerpUD and GRP78 in tunicamycin-treated HAEC; settings: 6 h tunicamycin
Protocol: (§1) Primary human aortic endothelial cells (HAEC) were obtained from Gibco (Lot No: #765093 and Lot No: #999999) and cultured on 1% gelatin (Sigma) coated flasks of 75 cm^2 in M200 medium supplemented with LSGS (Gibco), 8% fetal bovine serum (FBS), and 100 μg/mL penicillin and streptomycin in a humidified atmosphere at 21% O2, 5% CO2 and 37° C. The cells were split at a ratio of 1:4 every 5 days. Cells up to passage 5 were used in this study. All cell culture media, serum, and supplements were purchased from Invitrogen. STF083010 (10 μM) and 4μ8c (10 μM) were purchased from Axon MedChem. […]
(§2) RNA was extracted from HAEC using the NucleoSpin RNA kit (Macherey-Nagel) containing a DNase treatment to remove potentially contaminating genomic DNA. […] A quantity of 1 μg of total RNA was reverse-transcribed with High Capacity cDNA Reverse Transcription kit (ABsystems). RT-qPCR was performed in triplicate with negative template controls, negative enzyme controls and the use of a calibrator to limit inter-run variations as recommended by the MIQE guidelines (Bustin S A, Benes V, Garson J A, Hellemans J, Huggett J, Kubista M, et al. The MIQE Guidelines: Minimum Information for Publication of Quantitative Real-Time PCR Experiments. Clin. Chem. 2009; 55:611-22). […]

CHOP [2] = assay: RT-qPCR of CHOP mRNA in tunicamycin-treated HAEC; settings: 6 h tunicamycin, hydrochloride
Protocol: as §1, §2

HAEC = assay: XTT viability assay on HAEC subjected to 24 h of cold ischemia followed by 6 h of reperfusion; settings: for cell viability / survival after ischemia reperfusion (XTT): 24 h ischemia + 6 h reperfusion, treated during hypoxia from start (AEBSF 300 μM, Salubrinal 75 μM, STF083010 10 μM, 4μ8c 10 μM); for protection against cell death, treatment delayed by 12 h after start of cold ischemia: treatment after 12 h; for protection against cell death, treatment delayed by 12 h after start of cold ischemia / protection against cell death, treatment delayed by 6 h after start of cold ischemia: data not shown; for protection against cell death, treatment delayed by 6 h after start of cold ischemia: treatment only at 6 h
Protocol: Primary human aortic endothelial cells (HAEC) were obtained from Gibco (Lot No: #765093 and Lot No: #999999) and cultured on 1% gelatin (Sigma) coated flasks of 75 cm^2 in M200 medium supplemented with LSGS (Gibco), 8% fetal bovine serum (FBS), and 100 μg/mL penicillin and streptomycin in a humidified atmosphere at 21% O2, 5% CO2 and 37° C. The cells were split at a ratio of 1:4 every 5 days. Cells up to passage 5 were used in this study. All cell culture media, serum, and supplements were purchased from Invitrogen. STF083010 (10 μM) and 4μ8c (10 μM) were purchased from Axon MedChem. Salubrinal (75 μM) was from R&D. Tunicamycin ([…]), sodium 4-phenylbutyrate (1 mM), and 4-(2-Aminoethyl)benzenesulfonyl fluoride (AEBSF, 300 μM) were from Sigma. All chemicals were dissolved in DMSO (Sigma). IRE1α^−/− and IRE1α^+/+—which are IRE1α^−/− cells rescued by a retrovirus encoding a Flag-tagged human IRE1α—murine embryonic cells (MEC) were produced as previously described (Volmer R, Ploeg K van der, Ron D. Membrane lipid saturation activates endoplasmic reticulum unfolded protein response transducers through their transmembrane domains. Proc. Natl. Acad. Sci. 2013; 201217611). MEC were cultured in DMEM high-glucose media (Gibco) supplemented with 10% FBS, non-essential amino acids (Gibco), penicillin and streptomycin (Gibco), L-glutamine (Gibco), and puromycin (3 μg/mL).
(§3) HAEC were washed with PBS before being incubated in cold University of Wisconsin (UW) preservation solution in a chamber with hypothermic (4° C.) hypoxic atmosphere obtained by flushing the chamber atmosphere with Bactal 2 (0% O2, 95% N2 and 5% CO2) until the reach of 0% 02 in the chamber atmosphere. The oxygen level was controlled with the oximeter Oxy-4 micro from PreSens Precision Sensing GmbH with channels present in the outside atmosphere, the chamber atmosphere, and the cell supernatant. To perform the normothermic reoxygenation, cells were washed with PBS and then incubated with M200 supplemented with 2% FBS in a humidified atmosphere at 21% O2, 5% CO2 and 37° C. The durations of both hypoxia and reoxygenation are indicated in figure legends and in the manuscript.
Reverse transfection were performed using ON-TARGETplus SMART pool siRNAs targeting IRE1α (#L-004951-02-0005), XBP1 (#L-009552-00-0005), PERK (#L-004883-00-0005), ATF4 (#L-005125-00-0005), ATF6 (#L-009917-00-0005), or ON-TARGETplus Non-targeting Pool control siRNAs (#D-001810-10-05). They were purchased from Dharmacon and used at a final concentration of 20 nM. The transfection was performed using Lipofectamine RNAiMAX and Opti-MEM reduced serum medium according to the manufacturer's instructions (Invitrogen). After 6 hours of transfection, the cell medium was replaced with fresh cell culture medium containing 10% of FBS, LSGS but no antibiotics and no antimycotics. After 24 hours of transfection, cells were subjected to hypoxia-reoxygenation experiments. For cells in 96- and 24-wells plates, cell viability was analyzed according to protocol provided (XTT cell proliferation kit II, Roche Diagnostics) while cells in 6-wells were subjected to RT-qPCR analysis to detect knockdown efficiency.

ATF4 = ATF4 production in EC subjected to 6 h of ischemia; settings: data not shown
Protocol: as §3
(§4) HAEC were washed in cold PBS and resuspended in complete lysis buffer (Roche Diagnostics, #04719956001) before being sonicated at output power of 2 for 3 seconds (Branson Sonifier 450). The protein concentration of cell lysate supernatants was measured by BCA protein assay (Bio-Rad, #23225). […] The bound primary antibodies were detected with ChemiDoc™ MP imager (Bio-Rad) by the use of HRP-conjugated secondary antibody and the ECL detection system (Amersham Biosciences). […]

IRE1α's RNase activity [3] = assay: XBP1s and Erdj4 expression in tunicamycin-stimulated cells; settings: data not shown
Protocol: as §1, §2

ATF6 [4] = assay: Western blot analysis of ATF6 at different times of ischemia; settings: data not shown
Protocol: as §3, §4

CHOP [5] = assay: RT-qPCR of CHOP mRNA in HAEC subjected to 24 h of ischemia
Protocol: as §3, with “The durations of both hypoxia and reoxygenation are indicated in figure legends and in the manuscript.” left out
as §2

IRE1α's RNase activity [6] = assay: XBP1 mRNA splicing in cells subjected to 6 h ischemia; settings: data not shown
Protocol: as §3
We followed the method used in (Fougeray S, Bouvier N, Beaune P, Legendre C, Anglicheau D, Thervet E, et al. Metabolic stress promotes renal tubular inflammation by triggering the unfolded protein response. Cell Death Dis. 2011; 2:e143). The XBP1 cDNA encompassing the region of restriction site was amplified by PCR. […] The spliced isoform of XBP1 mRNA was resistant to Pst1 and was detected as a 448-bp amplification product whereas the unspliced isoform, containing Pst1 restriction site, was detected by the presence of two amplification products of 291-bp and 183-bp (FIG. 8A, right).

For `Cl.NCCc1ccc(S(=O)(=O)F)cc1` [AEBSF, 4-(2-Aminoethyl) benzenesulfonyl fluoride hydrochloride], the “GRP78 mRNA expression” value (ATF6 [1]) was “decreased”, the “HerpUD mRNA expression” value (ATF6 [1]) was “decreased” and the “CHOP mRNA expression” value (CHOP [2]) was “decreases CHOP expression; also recorded: lower CHOP mRNA expression”. The “cell viability / survival after ischemia reperfusion (XTT)” value (shortened to “cell viability / survival”) (HAEC; hydrochloride) was “improves viability; also recorded: protected endothelial cells against cold ischemia-induced death; also recorded: correctly protected EC against death”, the “protection against cell death, treatment delayed by 12 h after start of cold ischemia” value (HAEC) was “protective effect was significantly lost” and the “protection against cell death, treatment delayed by 6 h after start of cold ischemia” value (shortened to “protection … by 6 h after start of cold ischemia”) (HAEC) was “trend towards decreased protection”.
In the case of `O=C(C=Cc1ccccc1)NC(NC(=S)Nc1cccc2cccnc12)C(Cl)(Cl)Cl` (stereo not shown) [Salubrinal, 3-phenyl-N-[2,2,2-trichloro-1-[[(8-quinolinylamino)thioxomethyl]amino]ethyl]-2-propenamide], the ATF4 production (ATF4) is reported as “effectively increased”, the “cell viability / survival” value (HAEC) is reported as “improves viability; also recorded: significantly increased EC survival” and the “cell viability / survival” value (HAEC; listed as Salubinal) is reported as “significantly protected cells against death”. For the same molecule, the “protection … by 6 h after start of cold ischemia” value (HAEC) was “lost”.
For `O=S(=O)(N=Cc1c(O)ccc2ccccc12)c1cccs1` [STF083010, N-[(2-Hydroxy-1-naphthalenyl)methylene]-2-thiophenesulfonamide], the Erdj4 expression (IRE1α's RNase activity [3]) was “abrogated”, the XBP1s expression (IRE1α's RNase activity [3]) was “abrogated” and the “ATF6 expression (Western blot)” value (ATF6 [4]; after 12 h of ischemia) was “trend towards increased ATF6 expression”. The “ATF6 expression (Western blot)” value (ATF6 [4]; at 24 h of ischemia) was “no significant differences”, the “CHOP mRNA expression” value (CHOP [5]) was “decreased CHOP mRNA expression” and the “CHOP mRNA expression” value (CHOP [5]; listed as STF) was “significantly decreased CHOP expression to control levels”. The “XBP1 mRNA splicing” value (IRE1α's RNase activity [6]) was “inhibited splicing”, the “cell viability / survival” value (HAEC) was “improves viability; also recorded: increased EC survival” and the “cell viability / survival” value (HAEC; listed as STF) was “significantly increased EC survival”. For the same molecule, the “protection against cell death, treatment delayed by 12 h after start of cold ischemia” value (HAEC) was “did not alter the protection” and the “protection … by 6 h after start of cold ischemia” value (HAEC) was “did not alter the protection”.
For `Cc1cc(=O)oc2c(C=O)c(O)ccc12` [4μ8c], the “cell viability / survival” value (HAEC) was “increased EC survival”.
